{
  "source": "patent US20240075182A1",
  "about": "“ENHANCED DERMAL PATCH FOR TREATING MENSTRUAL PAIN” (REMY BIOSCIENCES, priority 2021, published 2024)",
  "key": {"[1]": {"settings": "as measured at room temperature; cited from earlier work"}, "[2]": {"settings": "cited from earlier work"}, "[3]": {"assay": "Transdermal flux / transdermal delivery from PIB adhesive patch (Franz diffusion cell)", "quoted_text": "The inventor used a Franz cell for assessing release kinetics, as described below. For testing release kinetics from transdermal monolithic patches, where a semi-solid adhesive matrix is used, the Franz cell has the following components, from top to bottom: (1) Stopper used to seal top of donor compartment; (2) Donor compartment; (3) Patch situated at very bottom of donor compartment, with adhesive side of patch attached to human cadaver skin; (4) Human cadaver skin located immediately under the patch; (5) Receiving compartment, located immediately below the skin. Receiving compartment is filled with ethanol/water solution; (6) Magnetic stirrer located at bottom of receiving compartment.\nAfter receiving the donor human skin, the inventor prepared the skin for testing in a Franz cell by thawing the skin to room temperature, washing in distilled water and cutting in round pieces to fit the diameter of the Franz cell opening. Before placing the patch on the human skin, the inventor dried the skin with a paper tissue. The skin with the attached patch was placed between the Upper Donor Chamber and the Lower Receiving Chamber and clamped tightly. […] The test lasts typically 24 hrs and aliquots of 150 L were withdrawn from the receiving chamber after different periods of time and analyzed via HPLC. […]"}, "[4]": {"assay": "Saturation concentration (solubility) of CBD in PIB adhesive, CBD added until turbidity", "type": "physicochemical", "source_text": "Regarding peel strength of adhesives, the inventor used judgment and estimation for preparing the patch with 26% of tackifying resin. Escorez 5400 has been used in many adhesives but not in PIB. […] The inventor estimated the peel strength of the formulation with tackifier and without tackifier, by peeling them both from the inventor's own arm skin. To obtain saturation concentration of CBD in the PIB adhesive with 26% of tackifying resin Escorez 5400 the inventor needed to add more CBD to reach turbidity. […] It was the same as the flux from PIB saturated with CBD without tackifier.\nThis is expected to result in thus greater flux of CBD to a patient, where the dermal patch is in contact with the skin of a patient."}},
  "data": [
    {"smiles": "O=S(=O)(O)CCNC1CCCCC1", "note": "[CHES]", "values": [
      {"measurement": "pKa", "setting": "[1]", "value": 9.5}
    ]},
    {"smiles": "O=S(=O)(O)CCN1CCN(CCS(=O)(=O)O)CC1", "note": "[PIPES]", "values": [
      {"measurement": "pKa", "setting": "[1]", "value": 6.8}
    ]},
    {"smiles": "OB(O)O", "note": "[boric acid]", "values": [
      {"measurement": "pKa", "setting": "[1]", "value": 9.2}
    ]},
    {"smiles": "COc1cc(CNC(=O)CCCC/C=C/C(C)C)ccc1O", "note": "[Capsaicin, trans-8-methyl-N-vanillyl-6-nonenamide]", "values": [
      {"measurement": "water solubility", "setting": "[2]", "value": "not water-soluble"}
    ]},
    {"smiles": "CCCCCCCC/C=C\\CCCCCCCC(=O)O", "note": "[oleic acid]", "values": [
      {"measurement": "transdermal delivery from PIB adhesive with enhancer", "setting": "[3]; enhancer at 3% in PIB adhesive, versus PIB without enhancer", "value": "double"}
    ]},
    {"smiles": "C=C(C)[C@@H]1CCC(C)=C[C@H]1c1c(O)cc(CCCCC)cc1O", "note": "[CBD, cannabidiol]", "values": [
      {"measurement": "concentration of the saturation of CBD in PIB adhesive", "setting": "[4]; PIB adhesive with 26% of tackifying resin Escorez 5400, CBD added to reach turbidity", "value": "about 18%"},
      {"measurement": "solubility of CBD in PIB adhesive, effect of Escorez 5400 tackifier", "setting": "[4]; with Escorez 5400 tackifier versus without", "value": "increased"},
      {"measurement": "transdermal flux of CBD", "setting": "[3]; PIB adhesive with 26% Escorez 5400 saturated with CBD, versus PIB saturated with CBD without tackifier", "value": "did not increase"}
    ]}
  ]
}
